# Test: Study 301 (BHV3000-301), Phase 3, rimegepant 75 mg tablet vs placebo, acute treatment of migraine
# Assay type: in vivo, human
# Source text: Clinical Trial—BHV3000-301: Phase 3: Double-Blind, Randomized, Placebo-Controlled, Safety and Efficacy Trial of BHV-3000 (Rimegepant) for the Acute Treatment of Migraine (ClinicalTrials.gov Identifier: NCT03235479). • Study Type: Interventional (Clinical Trial) • Actual Enrollment: 1490 participants • Allocation: Randomized • Intervention Model: Parallel Assignment • Intervention Model Description: Double-blind to Sponsor, Investigator and Subject Randomized Controlled Trial • Masking: Triple (Participant, Care Provider, Investigator) • Masking Description: Double-blind to Sponsor, Investigator and Subject • Primary Purpose: Treatment • Official Title: BHV3000-301: Phase 3: Double-Blind, Randomized, Placebo-Controlled, Safety and Efficacy Trial of BHV-3000 (Rimegepant) for the Acute Treatment of Migraine • 1. Pain freedom of rimegepant (75 mg tablet) compared with placebo in the acute treatment of migraine will be measured using the number of evaluable subjects that report no pain at 2 hours post-dose. [Time Frame: Two hours post dose] • Pain will be measured on a 4 point Likert scale (0=none, 1=mild, 2=moderate, 3=severe) • 2. Freedom from the most bothersome symptom (MBS) of rimegepant (75 mg tablet) compared with placebo will be measured using the number of evaluable subjects that report the absence of their MBS at 2 hours post-dose. [Time Frame: Two hours post dose] • The MBS (nausea, phonophobia or photophobia) will measured using a binary scale (0=absent, 1=present). • 1. […] [Time Frame: 2 hours-24 hours post-dose] • Sustained Pain Freedom as measured by a 4 point numeric rating scale (None, Mild, Moderate, Severe) • 2. The difference between rimegepant (75 mg tablet) compared to placebo by tabulating the absence of photophobia at 2 hours post-dose in the subset of subjects that reported the presence of photophobia at headache baseline. [Time Frame: 2 hours post-dose] • Photophobia • 3. To evaluate rimegepant (75 mg tablet) compared to placebo by tabulating the number of subjects that report the absence of phonophobia at 2 hours post-dose in the subset of subjects that reported the presence of phonophobia at headache baseline. [Time Frame: 2 hours post-dose] • Phonophobia • 4. To measure the difference between rimegepant (75 mg tablet) compared to placebo on Pain Relief, at 2 hours post-dose, for those that report a pain level of moderate or severe at baseline and then report a pain level of none or mild. [Time Frame: 2 hours post-dose] • Pain Relief as measured by a 4 point numeric rating scale (None, Mild, Moderate, Severe) • 5. Freedom from Nausea by tabulating the number of subjects that report the absence of nausea at 2 hours post-dose in the subset of subjects that reported the presence of nausea at headache baseline. [Time Frame: 2 hours post-dose] • Freedom from Nausea • 6. The difference between rimegepant (75 mg tablet) compared to placebo on the probability of requiring rescue medication using the number of subjects that take rescue medication within […] administration of study medication (BHV3000 or placebo). [Time Frame: up to 24 hours post-dose] • Requiring Rescue Medication • 7. […] [Time Frame: 2 hours-24 hours post-dose] • Sustained Pain Freedom • 8. […] [Time Frame: 2 hours-24 hours post-dose] • Sustained Pain Relief as measured by a 4 point numeric rating scale (None, Mild, Moderate, Severe) • 9. […] [Time Frame: 2 hours-48 hours post-dose] • Sustained Pain Relief as measured by a 4 point numeric rating scale (None, Mild, Moderate, Severe) • 10. To measure the difference between rimegepant (75 mg tablet) relative to placebo on the proportion of subjects able to function normally, at 2 hours, using the number of subjects that self-report as “normal” on the functional disability scale. [Time Frame: 2 hours post-dose] • Functional Disability Score • 11. […]
# [1] = both subjects not dosed before onset
smiles,measurement,setting,value
"N[C@@H]1c2cccnc2[C@H](OC(=O)N2CCC(n3c(=O)[nH]c4ncccc43)CC2)CC[C@H]1c1cccc(F)c1F [Rimegepant, [(5S,6S,9R)-5-amino-6-(2,3-difluorophenyl)-6,7,8,9-tetrahydro-5H-cyclohepta[b]pyridin-9-yl] 4-(2-oxo-3H-imidazo[4,5-b]pyridin-1-yl)piperidine-1-carboxylate]",SAEs related to the study drug,,No SAE
same,"AE dizziness, incidence",75 mg tablet,0.7%
same,"AE dizziness, n/N",75 mg tablet,4/546
same,"AE nausea, incidence",75 mg tablet,0.9%
same,"AE nausea, n/N",75 mg tablet,5/546
same,Bilirubin elevations >2 times ULN,75 mg tablet,No bilirubin elevations
same,"Serum ALT or AST > ULN, n/N",75 mg tablet,11/546
same,"Serum ALT or AST > ULN, subjects",75 mg tablet,2.0%
same,"Transaminase level >3 times ULN, number of subjects",75 mg tablet,One
same,"Transaminase level >3 times ULN, subjects",75 mg tablet,0.2%
same,Transaminase level >5 times ULN,75 mg tablet,no subject
same,Normal function at 2 hours (functional disability) vs placebo,P<0.0001,greater proportion
same,"Serious AEs, number of subjects",[1],2
same,"Serious AEs, subjects",[1],0.4%
same,Sustained pain relief from 2 through 48 hours postdose vs placebo,"single dose, no rescue medication, P=0.0003",superiority versus placebo
same,Sustained pain freedom from 2 through 48 hours postdose vs placebo,"single dose, no rescue medication, P=0.013",superiority versus placebo
